The subject of data set [1] is Human Heme Oxygenase-1 (HMOX-1). Nature of the data set: ELISA assay to measure human heme oxygenase-1 (HMOX-1) in HepG2 lysate. Type of data set: cell-based. To be noted: human HMOX1 protein level in HepG2 lysate; * = average of 2 or more EC50 determinations; NA = Not Active; read-out: EC50. Put shortly:
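HO-1 protein levels were read as fold change over DMSO-treated cells, with EC50 derived from these values. Quantitation used a chemiluminescent streptavidin-HRP capture ELISA, calibrated with an HO-1 standard series starting at 20 ng/ml, run at 20 °C. Samples were HepG2 lysates made with Triton X100/EDTA buffer and diluted 1:20.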

The nature of a further data set: Kinetic solubility. Type of data set: physicochemical. Conditions: Dulbecco's phosphate buffer saline (DPBS), aqueous buffer, kinetic from dmso stock, DPBS pH 7.4, 25° C., 200 μM test compound. As for the experimental part:
Example 144. Kinetic Solubility
10 μL of 10 mM DMSO stock solution were aliquotted to 490 μL of DMSO solution and separately 490 μL of Dulbecco's phosphate buffer saline, DPBS, pH 7.4 solution in 1.2 mL 96-well plates in duplicate. Final concentration was 200 μM of the test compound. Samples were incubated at 25° C. with shaking at 200 rpm for 16 h. Samples were centrifuged at 3500 rpm for 20 min at 25° C., and supernatant was submitted for HPLC analysis.
Kinetic solubility was measured using the following equation: […]

pEC50: −log10 of the molar value. Converted amounts (≈) assume the structure as drawn.

For orientation: pEC50 means the EC50 on a negative log10 scale, so that one unit is a factor of ten. What is called solubility is the concentration that dissolves in the medium under given conditions. Read a high solubility as much dissolved substance. Take `Cn1c(Nc2nc3ccc(OC(F)F)cc3o2)nc2cc(C(=O)NCCO)ccc21` [Example 64, 2-((6-(difluoromethoxy)benzo[d]oxazol-2-yl)amino)-N-(2-hydroxyethyl)-1-methyl-1H-benzo[d]imidazole-5-carboxamide]: in data set [1], the pEC50 was 5.74. The solubility at 16 h in the data set “Kinetic solubility” is 2 µM (≈ 0.835 µg/mL).
In the same order, the values of `COCCNC(=O)c1ccc2c(c1)nc(Nc1nc3cc(F)ccc3o1)n2C` [Example 67, 2-((5-fluorobenzo[d]oxazol-2-yl)amino)-N-(2-methoxyethyl)-1-methyl-1H-benzo[d]imidazole-5-carboxamide] are 6.04 and < 5 µM.
For `COCCNC(=O)c1cc2nc(Nc3nc4ccc(OC(F)(F)F)cc4o3)n(C)c2cc1F` [Example 71, 6-fluoro-N-(2-methoxyethyl)-1-methyl-2-((6-(trifluoromethoxy)benzo[d]oxazol-2-yl)amino)-1H-benzo[d]imidazole-5-carboxamide] the same measures were 6.14 and 0.3 µM (≈ 0.14 µg/mL).
In the case of `Cn1c(Nc2nc3ccccc3o2)nc2cc(C(=O)NCCOCCO)c(F)cc21` [Example 72, 2-(benzo[d]oxazol-2-ylamino)-6-fluoro-N-(2-(2-hydroxyethoxy)ethyl)-1-methyl-1H-benzo[d]imidazole-5-carboxamide], the pEC50 in data set [1] is 5.96. For the same compound, the solubility at 16 h in “Kinetic solubility” came out at 2.7 µM (≈ 1.12 µg/mL).
Regarding `O=C(O)c1ccc2c(c1)nc(Nc1nc3ccc(OC(F)(F)F)cc3o1)n2C1CCOCC1` [Example 79, 1-(tetrahydro-2H-pyran-4-yl)-2-((6-(trifluoromethoxy)benzo[d]oxazol-2-yl)amino)-1H-benzo[d]imidazole-5-carboxylic acid], the pEC50 in data set [1] is 5.40. In addition, the solubility at 16 h in the data set “Kinetic solubility” is 12.4 µM (≈ 5.73 µg/mL).
In the case of `Cn1c(Nc2nc3ccc(Br)cc3o2)nc2cc(C(=O)O)ccc21` [Example 91, 2-((6-bromobenzo[d]oxazol-2-yl)amino)-1-methyl-1H-benzo[d]imidazole-5-carboxylic acid], the pEC50 in data set [1] is 5.60. Besides, the solubility at 16 h in “Kinetic solubility” turned out to be 2.6 µM (≈ 1.01 µg/mL).
For `COc1ccc2nc(Nc3nc4cc(C(=O)NCCO)ccc4n3C)oc2c1` [Example 92, N-(2-hydroxyethyl)-2-((6-methoxybenzo[d]oxazol-2-yl)amino)-1-methyl-1H-benzo[d]imidazole-5-carboxamide], the pEC50 in data set [1] was 5.85. The solubility at 16 h in “Kinetic solubility” stood at 3.5 µM (≈ 1.33 µg/mL).
As to `COCCNC(=O)c1ccc2c(c1)nc(Nc1nc3ccc(OC(F)(F)F)cc3o1)n2CC1(O)COC1` [Example 94, 1-((3-hydroxyoxetan-3-yl)methyl)-N-(2-methoxyethyl)-2-((6-(trifluoromethoxy)benzo[d]oxazol-2-yl)amino)-1H-benzo[d]imidazole-5-carboxamide], in data set [1], the pEC50 was 5.89. In “Kinetic solubility”, this compound registered a solubility at 16 h of 0.3 µM (≈ 0.156 µg/mL).
For the compound `Cn1c(Nc2nc3ccc(Cl)cc3o2)nc2cc(C(=O)NCCO)ccc21` [Example 97, 2-((6-chlorobenzo[d]oxazol-2-yl)amino)-N-(2-hydroxyethyl)-1-methyl-1H-benzo[d]imidazole-5-carboxamide], the pEC50 in data set [1] was 5.85. In the data set “Kinetic solubility”, the solubility at 16 h is < 5 µM.
As to `COCCNC(=O)c1ccc2c(c1)nc(Nc1nc3ccc(OCC(F)(F)F)cc3o1)n2C` [Example 99, N-(2-methoxyethyl)-1-methyl-2-((6-(2,2,2-trifluoroethoxy)benzo[d]oxazol-2-yl)amino)-1H-benzo[d]imidazole-5-carboxamide], in data set [1], the pEC50 was 6.04. The solubility at 16 h in “Kinetic solubility” was determined as 0.4 µM (≈ 0.185 µg/mL).
Regarding `Cn1c(Nc2nc3ccc(OCC(F)(F)F)cc3o2)nc2cc(C(=O)NCCO)ccc21` [Example 100, N-(2-hydroxyethyl)-1-methyl-2-((6-(2,2,2-trifluoroethoxy)benzo[d]oxazol-2-yl)amino)-1H-benzo[d]imidazole-5-carboxamide], the pEC50 in data set [1] is 5.92. In the data set “Kinetic solubility”, this compound came in with a solubility at 16 h of 5.3 µM (≈ 2.38 µg/mL).
`COCCNC(=O)c1ccc2c(c1)nc(Nc1nc3ccc(OCCO)cc3o1)n2C` [Example 102, 2-((6-(2-hydroxyethoxy)benzo[d]oxazol-2-yl)amino)-N-(2-methoxyethyl)-1-methyl-1H-benzo[d]imidazole-5-carboxamide]: the pEC50 in data set [1] was 5.89. The same compound returned a solubility at 16 h in the data set “Kinetic solubility” of 5.3 µM (≈ 2.25 µg/mL).
Turning to `Cn1c(Nc2nc3ccc(OCCO)cc3o2)nc2cc(C(=O)NCCO)ccc21` [Example 103, 2-((6-(2-hydroxyethoxy)benzo[d]oxazol-2-yl)amino)-N-(2-hydroxyethyl)-1-methyl-1H-benzo[d]imidazole-5-carboxamide], the pEC50 in data set [1] is 5.51. Moreover, the solubility at 16 h in “Kinetic solubility” was > 20 µM.
With `Cn1c(Nc2nc3ccc(OCCO)cc3o2)nc2cc(C(=O)NCCOCCO)ccc21` [Example 104, 2-((6-(2-hydroxyethoxy)benzo[d]oxazol-2-yl)amino)-N-(2-(2-hydroxyethoxy)ethyl)-1-methyl-1H-benzo[d]imidazole-5-carboxamide], in data set [1], the pEC50 was 5.43. Moreover, the solubility at 16 h in “Kinetic solubility” is 6.6 µM (≈ 3.01 µg/mL).
For `Cn1c(Nc2nc3cc(F)c(C(F)(F)F)cc3o2)nc2cc(C(=O)NCCO)ccc21` [Example 108, 2-((5-fluoro-6-(trifluoromethyl)benzo[d]oxazol-2-yl)amino)-N-(2-hydroxyethyl)-1-methyl-1H-benzo[d]imidazole-5-carboxamide] the same measures were 5.82 and 0.3 µM (≈ 0.131 µg/mL).
For the compound `COCCNC(=O)c1ccc2c(c1)nc(Nc1nc3cccnc3o1)n2C` [Example 109, N-(2-methoxyethyl)-1-methyl-2-(oxazolo[5,4-b]pyridin-2-ylamino)-1H-benzo[d]imidazole-5-carboxamide], in data set [1], the negative-log EC50 (pEC50) was 5.21. In “Kinetic solubility”, this compound gave a solubility at 16 h of 7.4 µM (≈ 2.71 µg/mL).
In the same order, the values of `Cn1c(Nc2nc3cccnc3o2)nc2cc(C(=O)NCCO)ccc21` [Example 110, N-(2-hydroxyethyl)-1-methyl-2-(oxazolo[5,4-b]pyridin-2-ylamino)-1H-benzo[d]imidazole-5-carboxamide] are 5.12 and 18.9 µM (≈ 6.66 µg/mL).
In the case of `Cn1c(Nc2nc3cccc(C(F)(F)F)c3o2)nc2cc(C(=O)NCCOCCO)ccc21` [Example 117, N-(2-(2-hydroxyethoxy)ethyl)-1-methyl-2-((7-(trifluoromethyl)benzo[d]oxazol-2-yl)amino)-1H-benzo[d]imidazole-5-carboxamide], the pEC50 in data set [1] was 5.74. For the same compound, the solubility at 16 h in the data set “Kinetic solubility” turned out to be 1.2 µM (≈ 0.556 µg/mL).
In the same order, the values of `COCCONC(=O)c1ccc2c(c1)nc(Nc1nc3ccccc3o1)n2C` [Example 119, 2-(benzo[d]oxazol-2-ylamino)-N-(2-methoxyethoxy)-1-methyl-1H-benzo[d]imidazole-5-carboxamide] are 6.22 and 0.5 µM (≈ 0.191 µg/mL).
For `CC(O)CONC(=O)c1ccc2c(c1)nc(Nc1nc3ccccc3o1)n2C` (stereo not drawn) [Example 120, 2-(benzo[d]oxazol-2-ylamino)-N-(2-hydroxypropoxy)-1-methyl-1H-benzo[d]imidazole-5-carboxamide] the same measures were 5.70 and 6.5 µM (≈ 2.48 µg/mL).
For `Cn1c(Nc2nc3ccc(C(F)(F)F)cc3o2)nc2cc(C(=O)NOCCO)ccc21` [Example 125, N-(2-hydroxyethoxy)-1-methyl-2-((6-(trifluoromethyl)benzo[d]oxazol-2-yl)amino)-1H-benzo[d]imidazole-5-carboxamide] the same measures were 6.52 and 3.5 µM (≈ 1.52 µg/mL).

(Values after patent US10766888B1, “HMOX1 inducers” (Mitobridge Inc., priority 2019, dated 2020).)
